According to PMC7810383 (Science Advances, 2021):
Peptide text beside a SMILES is read from it. * marks the point of attachment. Cbz = O=C(OCc1ccccc1)*; CH2F = FC*

How the values were obtained:
[1] = test system: IAPs (BIRC2, BIRC3, XIAP, BIRC6); type: binding, human
XIAP = type: biochemical, human
hGID/CTLH complex = type: binding, human; settings: peptide on streptavidin beads, HeLa lysate, quantitative MS
[2] = test system: PARP cleavage in HeLa cells; type: cell-based, human; settings: NAA10 RNAi 72 hours, Z-VAD-FMK 40 μM, anti-PARP immunoblot
BIRC2 = type: cell-based, human

| Compound | IAP enrichment in peptide pull-down, Nt-free versus Nt-Ac peptide [1] | Ubiquitination of streptavidin-bound peptide by XIAP (anti-ubiquitin immunoblot) (XIAP) | also measured |
| --- | --- | --- | --- |
| H-MAVPAALILREKK-K(Biotin) [Met-COMMD10 Nt-free biotinylated peptide] | did not enrich IAPs |  |  |
| H-AQFAFESDLHSLLQL-PEG-K(Biotin)-CONH2 [CDC20 Nt-free biotinylated peptide] | robust interactions |  |  |
| H-ATPFQEGLRTFKKK-K(Biotin)-NH2 [CASP9 Nt-free biotinylated peptide, reference compound] | preferential binding partners | levels that were comparable |  |
| H-MDDDIAALVVKKK-PEG-(Biotin) [ACTB Nt-free biotinylated peptide] | did not enrich IAPs |  |  |
| H-AAAGAAATHLKK-K-(Biotin)-NH2 [PIGS Nt-free biotinylated peptide] | no IAP enrichment | not ubiquitinated |  |
| H-ASVGECPAPVKK-K-(Biotin)-NH2 [ATP5J2 Nt-free biotinylated peptide] | identified IAPs as binding partners |  |  |
| H-MEELIVELRLKKK-PEG-(Biotin) [AFAP1 Nt-free biotinylated peptide] | did not enrich IAPs |  |  |
| H-AAPEEHDSPTKK-K-(Biotin)-NH2 [DDX47 Nt-free biotinylated peptide] | identified IAPs as binding partners | strongly ubiquitinated |  |
| Ac or H-AAAGAAATHLKK-K-(Biotin)-NH2 [PIGS Nt-Ac biotinylated peptide] |  | not ubiquitinated |  |
| H-AVPAALILREKK-K(Biotin)-NH2 [COMMD10 Nt-free biotinylated peptide] | strongly enriched | strongly ubiquitinated | hGID/CTLH complex enrichment in peptide pull-down (hGID/CTLH complex): also enriched |
| H-APPSVFAEVPQAQPV-PEG-K(Biotin)-CONH2 [GOT1 Nt-free biotinylated peptide] | no IAP enrichment |  |  |
| H-AAPWRRWPTGKK-K-(Biotin)-NH2 [TMEM223 Nt-free biotinylated peptide] | identified IAPs as binding partners |  |  |
| COC(=O)C[C@H](NC(=O)[C@H](C)NC(=O)[C@@H](NC(=O)OCc1ccccc1)C(C)C)C(=O)CF [Z-VAD, Benzyloxycarbonyl-Val-Ala-Asp-fluoromethyl ketone] (Cbz-Val-Ala-Asp(OMe)-CH2F) |  |  | PARP cleavage induced by NatA RNAi [2]: inhibited |
| H-AISSSSCELPLVAVF-PEG-K(Biotin)-CONH2 [NIT1 Nt-free biotinylated peptide] | strongly enriched |  |  |
| H-AVGKNKRLTKK-K-FITC [RPS3A Nt-free peptide] | no IAP enrichment |  |  |
| CN[C@@H](C)C(=O)N[C@H](C(=O)N1CCC[C@H]1c1nc(C(=O)c2ccc(F)cc2)cs1)C1CCCCC1 [LCL161] |  |  | BIRC2 levels (BIRC2): IAP depletion |
| H-AVPSPPPASPKK-K(Biotin) [HTRA2 Nt-free biotinylated peptide, reference compound] | preferential binding partners |  |  |
| Ac or H-AQFAFESDLHSLLQL-PEG-K(Biotin)-CONH2 [CDC20 Nt-Ac biotinylated peptide] | no enrichment |  |  |
| H-AVPIAQKSEPFKKK-K(Biotin)-NH2 [DIABLO Nt-free biotinylated peptide, reference compound] | preferential binding partners | levels that were comparable |  |
